Test results from patent US10738056B2 (Aduro BioTech, Inc., priority 2017, dated 2020).
Read-outs that look alike come from different tables or passages of the source.

Legend:
[1] = biological target: Human cGAS amino acids 155-522 (Homo sapiens (Human), UniProt Q8N884); test: cGAS biochemical activity assay (ATP remaining, Kinase-Glo Max luminescence); conditions: human cGAS 155-522, ATP remaining (Kinase-Glo Max); read-out: cGAS IC50
[2] = system: cGAS/STING pathway in THP1 cells; test: THP1 cell-based cGAS/STING pathway activity assay (IRF-3-linked luciferase reporter)
Summary of the method: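 THP1 cells carrying an IRF-3-driven luciferase reporter were read across a range of compound concentrations, and IC50 values were derived from these concentration responses; the assay upper limit was 100 μM.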

Chain of Human cGAS amino acids 155-522 (Q8N884 157-522): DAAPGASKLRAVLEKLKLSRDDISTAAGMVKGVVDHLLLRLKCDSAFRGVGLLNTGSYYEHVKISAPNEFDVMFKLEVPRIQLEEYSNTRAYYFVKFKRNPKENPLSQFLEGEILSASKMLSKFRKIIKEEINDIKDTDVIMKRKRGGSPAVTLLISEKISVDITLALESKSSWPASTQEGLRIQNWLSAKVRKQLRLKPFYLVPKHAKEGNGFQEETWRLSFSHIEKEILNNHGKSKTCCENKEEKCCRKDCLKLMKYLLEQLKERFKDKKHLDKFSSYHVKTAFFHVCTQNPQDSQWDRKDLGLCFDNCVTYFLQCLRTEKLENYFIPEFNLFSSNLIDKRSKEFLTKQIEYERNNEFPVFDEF

Molecule Cc1cc(NC(=O)c2c(C)[nH]c3c(-c4ccccc4)c(C(F)(F)F)nn3c2=O)[nH]n1 [Compound A1081, 5-methyl-N-(3-methyl-1H-pyrazol-5-yl)-7-oxo-3-phenyl-2-(trifluoromethyl)-4,7-dihydropyrazolo[1,5-a]pyrimidine-6-carboxamide] has an IC50 [1] of under 20 µM and an IC50 ([2]; Homo sapiens, THP-1) of 20 to 100 µM.
In the case of Cc1[nH]c2c(-c3ccccc3)c(C(F)(F)F)nn2c(=O)c1-c1nc2c(N(C)C)cccc2o1 [Compound C1078, 6-(4-(dimethylamino)benzo[d]oxazol-2-yl)-5-methyl-3-phenyl-2-(trifluoromethyl)pyrazolo[1,5-a]pyrimidin-7(4H)-one], the IC50 [1] is reported as under 20 µM and the IC50 ([2]; Homo sapiens, THP-1) is reported as under 20 µM.
CO[C@@H]1CCCC[C@H]1c1nnc(-c2c(C)[nH]c3c(-c4ccccc4)c(C(F)(F)F)nn3c2=O)o1 [D1046 Iso-3] gave an IC50 [1] of under 20 µM and an IC50 ([2]; read-out: THP-1 IC50) of over 100 µM.
With Cc1nnc(-c2c(C)[nH]c3c(-c4ccccc4)c(C(F)(F)F)nn3c2=O)[nH]1 [Compound C1020, 5-methyl-6-(5-methyl-4H-1,2,4-triazol-3-yl)-3-phenyl-2-(trifluoromethyl)pyrazolo[1,5-a]pyrimidin-7(4H)-one] the IC50 [1] was 20 to 250 µM and the IC50 ([2]; Homo sapiens, THP-1) was over 100 µM.
Cc1nn2c(=O)c(-c3nnc(C4CCCOC4)o3)c(C)[nH]c2c1-c1ccccc1 (stereo not shown) [Compound D1030, 2,5-dimethyl-3-phenyl-6-(5-(tetrahydro-2H-pyran-3-yl)-1,3,4-oxadiazol-2-yl)pyrazolo[1,5-a]pyrimidin-7(4H)-one] gave an IC50 [1] of under 20 µM and an IC50 ([2]; Homo sapiens, THP-1) of over 100 µM.
Molecule COc1cccc2oc(-c3c(COCCO)[nH]c4c(-c5ccccc5)c(C#N)nn4c3=O)nc12 [Compound C1248, 5-((2-hydroxyethoxy)methyl)-6-(4-methoxybenzo[d]oxazol-2-yl)-7-oxo-3-phenyl-4,7-dihydropyrazolo[1,5-a]pyrimidine-2-carbonitrile] has an IC50 [1] of under 20 µM and an IC50 ([2]; Homo sapiens, THP-1) of over 100 µM.
Cc1[nH]c2c(-c3ccccc3)c(C(F)(F)F)nn2c(=O)c1C(=O)NS(=O)(=O)c1cccc(C#N)c1 [Compound A1128, N-((3-cyanophenyl)sulfonyl)-5-methyl-7-oxo-3-phenyl-2-(trifluoromethyl)-4,7-dihydropyrazolo[1,5-a]pyrimidine-6-carboxamide] showed an IC50 [1] of under 20 µM and an IC50 ([2]; Homo sapiens, THP-1) of over 100 µM.
With COc1cccc2oc(-c3c(C)[nH]c4c(-c5ccccc5)c(C)nn4c3=O)nc12 [Compound C1042, 6-(4-methoxybenzo[d]oxazol-2-yl)-2,5-dimethyl-3-phenylpyrazolo[1,5-a]pyrimidin-7(4H)-one] the IC50 [1] was under 20 µM and the IC50 ([2]; Homo sapiens, THP-1) was under 20 µM.
For Cc1[nH]c2c(-c3ccccc3)c(C(F)(F)F)nn2c(=O)c1C(=O)NS(=O)(=O)Cc1ccccc1 [Compound A1112, N-(benzylsulfonyl)-5-methyl-7-oxo-3-phenyl-2-(trifluoromethyl)-4,7-dihydropyrazolo[1,5-a]pyrimidine-6-carboxamide], the IC50 [1] was under 20 µM and the IC50 ([2]; Homo sapiens, THP-1) was 20 to 100 µM.
Cc1[nH]c2c(-c3ccccc3)c(C(F)(F)F)nn2c(=O)c1C(=O)Nc1ccccc1S(C)(=O)=O [Compound A1083, 5-methyl-N-(2-(methylsulfonyl)phenyl)-7-oxo-3-phenyl-2-(trifluoromethyl)-4,7-dihydropyrazolo[1,5-a]pyrimidine-6-carboxamide] gave an IC50 [1] of under 20 µM and an IC50 ([2]; Homo sapiens, THP-1) of over 100 µM.
Molecule Cc1[nH]c2c(-c3ccccc3)c(C(F)(F)F)nn2c(=O)c1C(=O)Nc1ccccc1 [Compound A1002, 5-methyl-7-oxo-N,3-diphenyl-2-(trifluoromethyl)-4,7-dihydropyrazolo[1,5-a]pyrimidine-6-carboxamide] has an IC50 [1] of under 20 µM and an IC50 ([2]; Homo sapiens, THP-1) of 20 to 100 µM.
Molecule Cc1[nH]c2c(-c3ccccc3)c(C#N)nn2c(=O)c1-c1ccccc1 [Compound C1273, 5-methyl-7-oxo-3,6-diphenyl-4,7-dihydropyrazolo[1,5-a]pyrimidine-2-carbonitrile] has an IC50 [1] of under 20 µM and an IC50 ([2]; Homo sapiens, THP-1) of under 20 µM.
Cc1[nH]c2c(-c3ccccc3)c(C(F)(F)F)nn2c(=O)c1-c1nc2c(=O)[nH]ccc2o1 [Compound C1116, 2-(5-methyl-7-oxo-3-phenyl-2-(trifluoromethyl)-4,7-dihydropyrazolo[1,5-a]pyrimidin-6-yl)oxazolo[4,5-c]pyridin-4(5H)-one] showed an IC50 [1] of under 20 µM and an IC50 ([2]; Homo sapiens, THP-1) of over 100 µM.
COCc1coc(-c2c(C)[nH]c3c(-c4ccccc4)c(C(F)(F)F)nn3c2=O)n1 [Compound C1108, 6-(4-(methoxymethyl)oxazol-2-yl)-5-methyl-3-phenyl-2-(trifluoromethyl)pyrazolo[1,5-a]pyrimidin-7(4H)-one] was tested, and the IC50 [1] was under 20 µM and the IC50 ([2]; Homo sapiens, THP-1) was over 100 µM.
COc1[nH]c2c(-c3ccccc3)c(C(F)(F)F)nn2c(=O)c1-c1nc2c(OC)cccc2o1 [Compound C1084, 5-methoxy-6-(4-methoxybenzo[d]oxazol-2-yl)-3-phenyl-2-(trifluoromethyl)pyrazolo[1,5-a]pyrimidin-7(4H)-one] gave an IC50 [1] of under 20 µM and an IC50 ([2]; Homo sapiens, THP-1) of under 20 µM.
Cc1[nH]c2c(-c3ccccc3)c(C#N)nn2c(=O)c1-c1nc2ccccc2o1 [Compound C1222, 6-(benzo[d]oxazol-2-yl)-5-methyl-7-oxo-3-phenyl-4,7-dihydropyrazolo[1,5-a]pyrimidine-2-carbonitrile] gave an IC50 [1] of under 20 µM and an IC50 ([2]; Homo sapiens, THP-1) of 20 to 100 µM.
With Cc1cc(NC(=O)c2c(C)[nH]c3c(-c4ccccc4)c(C(F)(F)F)nn3c2=O)n(C)n1 [Compound A1073, N-(1,3-dimethyl-1H-pyrazol-5-yl)-5-methyl-7-oxo-3-phenyl-2-(trifluoromethyl)-4,7-dihydropyrazolo[1,5-a]pyrimidine-6-carboxamide] the IC50 [1] was 20 to 250 µM and the IC50 ([2]; Homo sapiens, THP-1) was over 100 µM.
COc1cc(C(=O)O)cc2oc(-c3c(C)[nH]c4c(-c5ccccc5)c(C(F)(F)F)nn4c3=O)nc12 [Compound C1155, 4-methoxy-2-(5-methyl-7-oxo-3-phenyl-2-(trifluoromethyl)-4,7-dihydropyrazolo[1,5-a]pyrimidin-6-yl)benzo[d]oxazole-6-carboxylic acid] gave an IC50 [1] of under 20 µM and an IC50 ([2]; Homo sapiens, THP-1) of 20 to 100 µM.
For Cc1[nH]c2c(-c3ccccc3)c(C(F)(F)F)nn2c(=O)c1C(=O)NS(C)(=O)=O [Compound A1117, 5-methyl-N-(methylsulfonyl)-7-oxo-3-phenyl-2-(trifluoromethyl)-4,7-dihydropyrazolo[1,5-a]pyrimidine-6-carboxamide], the IC50 [1] was 20 to 250 µM and the IC50 ([2]; Homo sapiens, THP-1) was over 100 µM.
For COc1cccc2oc(-c3c(COCC(=O)O)[nH]c4c(-c5ccccc5)c(C(F)(F)F)nn4c3=O)nc12 [Compound C1146, 2-((6-(4-methoxybenzo[d]oxazol-2-yl)-7-oxo-3-phenyl-2-(trifluoromethyl)-4,7-dihydropyrazolo[1,5-a]pyrimidin-5-yl)methoxy)acetic acid], the IC50 [1] was under 20 µM and the IC50 ([2]; Homo sapiens, THP-1) was over 100 µM.
Work on Cc1[nH]c2c(-c3ccccc3)c(C#N)nn2c(=O)c1-c1nc2cnccc2o1 [Compound C1275, 5-methyl-6-(oxazolo[4,5-c]pyridin-2-yl)-7-oxo-3-phenyl-4,7-dihydropyrazolo[1,5-a]pyrimidine-2-carbonitrile] yielded an IC50 [1] of under 20 µM and an IC50 ([2]; Homo sapiens, THP-1) of over 100 µM.
Cc1[nH]c2c(-c3ccccc3)c(C(F)(F)F)nn2c(=O)c1C(=O)NS(=O)(=O)c1ccccn1 [Compound A1120, 5-methyl-7-oxo-3-phenyl-N-(pyridin-2-ylsulfonyl)-2-(trifluoromethyl)-4,7-dihydropyrazolo[1,5-a]pyrimidine-6-carboxamide] gave an IC50 [1] of under 20 µM and an IC50 ([2]; Homo sapiens, THP-1) of over 100 µM.
COC1CCCCC1NC(=O)c1c(C)[nH]c2c(-c3ccccc3)c(C(F)(F)F)nn2c1=O (single isomer, unassigned) [Compound A1089, N-(2-methoxycyclohexyl)-5-methyl-7-oxo-3-phenyl-2-(trifluoromethyl)-4,7-dihydropyrazolo[1,5-a]pyrimidine-6-carboxamide] gave an IC50 [1] of under 20 µM and an IC50 ([2]; Homo sapiens, THP-1) of over 100 µM.
COCc1ccccc1NC(=O)c1c(C)[nH]c2c(-c3ccccc3)c(C(F)(F)F)nn2c1=O [Compound A1072, N-(2-(methoxymethyl)phenyl)-5-methyl-7-oxo-3-phenyl-2-(trifluoromethyl)-4,7-dihydropyrazolo[1,5-a]pyrimidine-6-carboxamide] was tested, and the IC50 [1] was 20 to 250 µM and the IC50 ([2]; Homo sapiens, THP-1) was 20 to 100 µM.
Cc1[nH]c2c(-c3ccccc3)c(C(F)(F)F)nn2c(=O)c1-c1nc2c(OCCN)cccc2o1 [Compound C1061, 6-(4-(2-aminoethoxy)benzo[d]oxazol-2-yl)-5-methyl-3-phenyl-2-(trifluoromethyl)pyrazolo[1,5-a]pyrimidin-7(4H)-one] showed an IC50 [1] of 20 to 250 µM and an IC50 ([2]; Homo sapiens, THP-1) of 20 to 100 µM.
Work on Cc1[nH]c2c(-c3ccccc3)c(C(F)(F)F)nn2c(=O)c1-c1nnc(C2(C)CCCC2)o1 [Compound D1023, 5-methyl-6-(5-(1-methylcyclopentyl)-1,3,4-oxadiazol-2-yl)-3-phenyl-2-(trifluoromethyl)pyrazolo[1,5-a]pyrimidin-7(4H)-one] yielded an IC50 [1] of under 20 µM and an IC50 ([2]; Homo sapiens, THP-1) of over 100 µM.
Molecule COc1ccc2[nH]c(-c3c(C)[nH]c4c(-c5ccccc5)c(C(F)(F)F)nn4c3=O)nc2c1 [Compound C1016, 6-(5-methoxy-1H-benzo[d]imidazol-2-yl)-5-methyl-3-phenyl-2-(trifluoromethyl)pyrazolo[1,5-a]pyrimidin-7(4H)-one] has an IC50 [1] of under 20 µM and an IC50 ([2]; Homo sapiens, THP-1) of under 20 µM.
Work on Cc1[nH]c2c(-c3ccccc3)c(C(F)(F)F)nn2c(=O)c1-c1nc2c(=O)n(C)ccc2o1 [Compound C1106, 5-methyl-2-(5-methyl-7-oxo-3-phenyl-2-(trifluoromethyl)-4,7-dihydropyrazolo[1,5-a]pyrimidin-6-yl)oxazolo[4,5-c]pyridin-4(5H)-one] yielded an IC50 [1] of under 20 µM and an IC50 ([2]; Homo sapiens, THP-1) of 20 to 100 µM.
COc1cccc2oc(-c3c(COC4COC4)[nH]c4c(-c5ccccc5)c(C#N)nn4c3=O)nc12 [Compound C1259, 6-(4-methoxybenzo[d]oxazol-2-yl)-5-((oxetan-3-yloxy)methyl)-7-oxo-3-phenyl-4,7-dihydropyrazolo[1,5-a]pyrimidine-2-carbonitrile] was tested, and the IC50 [1] was under 20 µM and the IC50 ([2]; Homo sapiens, THP-1) was over 100 µM.
